Holding throughout (experiment): NCI anticancer screen, dose series, 48 h
In assay [1] the test system is HCT-15 colon.
Assay [2] concerns HOP-62 NSCLC.
Assay [3] deals with NCI/ADR-RES ovarian.
The subject of assay [4] is OVCAR-4 ovarian.
Assay [5] has as its system PC-3 prostate.
Assay [6] deals with SK-MEL-28 melanoma.
For assay [7], the system named is SK-OV-3 ovarian.
The subject of assay [8] is T-47D breast.
The subject of assay [9] is U251 CNS.
Assay [10] concerns A498 renal.

Our source for the GI50 and TGI values is PubChem BioAssay (NCI).

Several values for one entry are separate records, joined by “and”; a condition that tells them apart may be missing. Equal values may be shown once.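 Assay format: 96-well plates, 48-hour exposure. Abbreviation: GI50, concentration required for 50% inhibition of growth. Definition used: TGI = concentration required for complete inhibition of growth.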

As to `COc1ccc(C(C)=O)cc1N1C(=O)C2C(C1=O)C1(c3ccccc3)C(=O)C2(c2ccccc2)C(c2ccc(C)cc2)=C1c1ccc(C)cc1` (configuration not stated), the GI50 in assay [1], in assay [2], in assay [3], in [4], in assay [5] and in assay [6] was more than 100 µM each time. For the same compound, the GI50 in assay [7], in [8] and in assay [9] was more than 100 µM in each case. Also, the TGI in assay [1], in assay [2], in [3], in assay [4], in assay [5] and in assay [6] was more than 100 µM throughout. The TGI in assay [7], in assay [8] and in [9] was more than 100 µM in each case.

As to `CC(C)CCN1c2nc(Nc3cc(F)c(O)c(F)c3)ncc2N(C)C(=O)C1C` (configuration not stated), the GI50 is 18.3 µM in assay [10]; 3.5 µM in assay [1]; 6.66 µM in [2]; 7.81 µM in assay [3]; 18.6 µM in [4]; 10.9 µM in assay [6]. Moreover, the GI50 was 2.89 µM in assay [7], 6.36 µM in [8] and 5.55 µM in [9]. Besides, the TGI in assay [10] is 54.6 µM; in assay [1] it was more than 49.1 µM; in [2] it was more than 100 µM; in assay [3] it was more than 100 µM; in assay [4], more than 100 µM; in assay [6], more than 95.8 µM. The TGI is more than 100 µM in assay [7], 25.9 µM in assay [8] and 58.6 µM in [9].

As for `CC(C)c1ccc2c(c1)CC[C@@H]1[C@@](C)(C(=O)O)CCC[C@]21C`, the GI50 in [1] is 6.38 µM; in assay [2], 10.8 µM; in assay [3], 17.8 µM; in assay [4], 4.23 µM; in [5], 7.62 µM; in assay [6], 5.8 µM. In addition, the GI50 in assay [7] was 4.49 µM; in [8], 2.39 µM; in assay [9], 4.54 µM. In addition, the TGI in [1] amounted to 19.6 µM; in [2] it was 22.7 µM; in [3] it was 57 µM; in assay [4], 10.8 µM; in assay [5] it was 82.6 µM; in assay [6] it was 22.3 µM. In addition, the TGI stood at 21.4 µM in assay [7], 7.58 µM in assay [8] and 18.3 µM in [9].

As to `CC(=O)c1cccc(NC(=O)C(=O)NNc2n[nH]c(=S)n2N)c1`, the TGI in [10] came to 37.7 µM; in [1], 15.9 µM; in assay [2], 29.3 µM; in [4] it was 23.4 µM; in assay [5] it was 23 µM; in assay [6] it was 18.5 µM. Besides, the TGI in assay [7] worked out at 43.1 µM; in [8], 13.6 µM; in assay [9], 12 µM.

For the compound `COc1cc(C(Cc2ccccc2)NC(C)=O)oc(=O)c1` (configuration not stated), the TGI in assay [10], in [1], in [2], in assay [4], in assay [6] and in assay [7] was more than 100 µM throughout. This compound also yielded a TGI in assay [9] of more than 100 µM.

Consider `O/N=C/C1C(OCc2ccccc2)C(OCc2ccccc2)C(OCc2ccccc2)CN1Cc1ccccc1` (configuration not stated), for which the TGI in assay [10] is more than 100 µM; in [1], more than 100 µM; in assay [2] it was 53.1 µM and > 100 µM; in assay [3], 72.5 µM and > 100 µM; in assay [4], more than 100 µM; in assay [6] it was 44.1 µM and > 100 µM. The TGI was 51.3 µM and > 100 µM in assay [7]; more than 100 µM in assay [8]; 37.5 µM and > 100 µM in assay [9]. The GI50 in assay [1] is 25.7 µM and 9.77 µM; in [2] it was 17.8 µM and 45.4 µM; in assay [3], 7.12 µM and 22.3 µM; in assay [7], 22.7 µM and > 100 µM.

With `CCOc1ccccc1C=C1c2ccccc2C(=O)c2ccccc21`, the TGI in assay [10] was more than 100 µM; in assay [1], more than 100 µM; in assay [2], 36.3 µM; in assay [4] it was more than 100 µM; in assay [6], more than 100 µM; in [7], 8.67 µM. The compound further had a TGI in assay [9] of more than 100 µM.

With `CC1=C(C(=O)Nc2ccccc2)C(c2ccccc2)C(C(=O)Nc2ccccc2)=C(C)N1`, the TGI in [10], in assay [1], in [2], in [4], in assay [6] and in assay [7] was more than 100 µM each time. The same compound had a TGI in assay [9] of more than 100 µM.

For `CN(C)c1ccc(C(C=C2c3ccccc3Sc3ccccc32)=C(C#N)C#N)cc1`, the TGI is more than 100 µM in [10]; more than 100 µM in assay [1]; more than 100 µM in assay [2]; 50.1 µM in assay [4]; more than 100 µM in assay [6]; more than 100 µM in [7]. For the same compound, the TGI in [9] was more than 100 µM.

In the case of `Cn1c2ccccc2c2c3c(c4c5cc(Br)ccc5n(C)c4c21)C(=O)N(O)C3=O`, the GI50 was 0.199 µM in assay [1]; 0.0926 µM in [3]; 0.497 µM in assay [5]; 0.584 µM in assay [6]; 0.0499 µM in assay [9]. The TGI in [1] is more than 100 µM; in assay [3], more than 100 µM; in assay [5] it was more than 100 µM; in [6], more than 100 µM; in assay [9] it was 0.489 µM.

On to `O=C(CCn1[nH]c(=O)c(Cl)c(Cl)c1=O)NO`, for which the TGI in [10], in assay [1], in assay [2], in assay [4], in assay [6] and in [7] was more than 100 µM throughout. For the same compound, the TGI in [9] was more than 100 µM.

Turning to `Cc1cc([N+](=O)[O-])ccc1Nc1cccc(Cl)c1C`, the TGI in assay [10] came to 29 µM; in [1] it was 35 µM; in assay [2] it was 28 µM; in [4], 31.4 µM; in assay [6], 32.1 µM; in [7] it was 47.7 µM. Besides, the TGI in [9] came out at 29.8 µM.

Take `OC[C@H]1C[C@](O)(c2ccc(Cl)cc2)[C@@H](c2ccc(Cl)cc2)O1`: the GI50 was 24.6 µM in assay [10]; 31.7 µM in [1]; 20.9 µM in assay [2]; 30.3 µM in assay [3]; 32 µM in [4]; 19.8 µM in assay [5]. Besides, the GI50 in [6] was 28.9 µM; in assay [7], 39.4 µM; in assay [9], 24.8 µM. The TGI in assay [10] is 57.3 µM; in assay [1], more than 100 µM; in assay [2], 51.8 µM; in [3], 87.5 µM; in [4], more than 100 µM; in [5] it was 57.5 µM. For the same compound, the TGI in [6] is 92.3 µM; in assay [7], more than 100 µM; in assay [9], 69.5 µM.

For the compound `Cc1cc(CC(O)c2ccc(Cl)c(Cl)c2)nc(=O)[nH]1` (configuration not stated), the TGI in assay [10] is more than 100 µM; in assay [1], more than 100 µM; in [2] it was 86.5 µM; in assay [4], more than 100 µM; in [6], more than 100 µM; in assay [7], more than 100 µM. The TGI in [9] is more than 100 µM.

For the compound `Cc1ccc(NC(=O)C(=O)C(C(=O)c2ccc3ccccc3c2)C2OC(=O)c3ccccc32)cc1C` (configuration not stated), the TGI in assay [10] is 31 µM; in [1] it was 24.2 µM; in assay [2], 35.7 µM; in [4], 40.6 µM; in assay [6], 26.9 µM; in [7], more than 100 µM. Also, the TGI in [9] amounted to 33.2 µM.

`CCCN=C(N)NC#N`: the TGI was more than 100 µM in [10]; 38.2 µM in assay [1]; more than 100 µM in assay [2]; more than 100 µM in [4]; more than 100 µM in assay [6]; more than 100 µM in [7]. In assay [9], this compound had a TGI of more than 100 µM.

Turning to `Cc1nn(-c2ccccc2)c2nc(N3CCOCC3)nnc12`, the TGI in assay [10], in assay [1], in assay [2], in assay [4], in assay [6] and in assay [7] was more than 100 µM throughout. In assay [9], this compound registered a TGI of more than 100 µM.

As for `CC(C)N(C(=O)C12C3C4C5(C#N)C3C1(C#N)C5C42I)C(C)C` (configuration not stated), the TGI in [10], in assay [1], in assay [2], in [4], in assay [6] and in [7] was more than 100 µM each time. Moreover, in assay [9], the TGI is more than 100 µM.

With `NNC(=S)N/N=C(\CC1OC(=O)c2ccccc21)c1ccccc1O` (configuration not stated), the TGI was 95.4 µM in assay [10]; more than 100 µM in assay [1]; more than 100 µM in assay [2]; more than 100 µM in [4]; more than 100 µM in [6]; more than 100 µM in assay [7]. For the same compound, in assay [9], the TGI is 56.2 µM.

With `O=C(/C=C/c1ccccc1O)c1ccccc1O`, the TGI in assay [10], in [1], in [2], in [4], in assay [6] and in assay [7] was more than 100 µM throughout. For the same compound, the TGI in [9] was more than 100 µM.

`COc1ccc(C(=O)C(c2ccc(OC)cc2)C2(O)C(=O)Nc3ccc([N+](=O)[O-])cc32)cc1` (configuration not stated): the TGI in assay [10] was 31.5 µM; in assay [1], more than 100 µM; in assay [2], more than 100 µM; in assay [4], more than 100 µM; in assay [6], more than 100 µM; in assay [7], more than 100 µM. For the same compound, the TGI in [9] was more than 100 µM.
